Assay results published in BindingDB's records for doi:10.1021/cc050016r (Uppsala University, 2005).
Where “and” joins values, the source holds several entries; their conditions need not be identical. Identical values can stand only once.

Biological target: HIV-1 protease (Human immunodeficiency virus, UniProt Q9YQ34)
Assay: Fluorometric Assay
Excerpt: Fluorometric assay using HIV-1 protease.

Sequence of HIV-1 protease (Q9YQ34 whole entry): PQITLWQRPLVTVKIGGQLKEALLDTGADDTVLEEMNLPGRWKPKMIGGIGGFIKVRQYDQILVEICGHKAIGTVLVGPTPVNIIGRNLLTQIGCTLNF

SMILES | Ki
CNC(=O)[C@@H](NC(=O)[C@H](OCc1ccccc1C(=O)NC(C)(C)C)[C@H](O)[C@@H](O)[C@@H](OCc1ccccc1C(=O)NC(C)(C)C)C(=O)N[C@H](C(=O)NC)C(C)C)C(C)C [HIV-1 Protease Inhibitor, 6b] | 700 nM
CNC(=O)[C@@H](NC(=O)[C@H](OCc1ccccc1C(=O)N1CCCC1)[C@H](O)[C@@H](O)[C@@H](OCc1ccccc1C(=O)N1CCCC1)C(=O)N[C@H](C(=O)NC)C(C)C)C(C)C [HIV-1 Protease Inhibitor, 6d] | 400 nM
CNC(=O)[C@@H](NC(=O)[C@H](OCc1ccccc1C(=O)N1CCOCC1)[C@H](O)[C@@H](O)[C@@H](OCc1ccccc1C(=O)N1CCOCC1)C(=O)N[C@H](C(=O)NC)C(C)C)C(C)C [HIV-1 Protease Inhibitor, 6e] | > 5000 nM
CNC(=O)[C@@H](NC(=O)[C@H](OCc1ccccc1C(=O)NC1CCCCC1)[C@H](O)[C@@H](O)[C@@H](OCc1ccccc1C(=O)NC1CCCCC1)C(=O)N[C@H](C(=O)NC)C(C)C)C(C)C [HIV-1 Protease Inhibitor, 6f] | 200 nM and 196 nM
CNC(=O)[C@@H](NC(=O)[C@H](OCc1ccccc1C(=O)Nc1nccs1)[C@H](O)[C@@H](O)[C@@H](OCc1ccccc1C(=O)Nc1nccs1)C(=O)N[C@H](C(=O)NC)C(C)C)C(C)C [HIV-1 Protease Inhibitor, 6g] | 700 nM
CNC(=O)[C@@H](NC(=O)[C@H](OCc1ccccc1C(=O)Nc1ccccc1)[C@H](O)[C@@H](O)[C@@H](OCc1ccccc1C(=O)Nc1ccccc1)C(=O)N[C@H](C(=O)NC)C(C)C)C(C)C [HIV-1 Protease Inhibitor, 6h] | 7 nM and 20 nM
CNC(=O)[C@@H](NC(=O)[C@H](OCc1ccccc1C(=O)Nc1cccnc1)[C@H](O)[C@@H](O)[C@@H](OCc1ccccc1C(=O)Nc1cccnc1)C(=O)N[C@H](C(=O)NC)C(C)C)C(C)C [HIV-1 Protease Inhibitor, 6i] | 70 nM and 118 nM
CCOC(=O)c1ccc(NC(=O)c2ccccc2CO[C@@H](C(=O)N[C@H](C(=O)NC)C(C)C)[C@H](O)[C@@H](O)[C@@H](OCc2ccccc2C(=O)Nc2ccc(C(=O)OCC)cc2)C(=O)N[C@H](C(=O)NC)C(C)C)cc1 [HIV-1 Protease Inhibitor, 6k] | 200 nM
CNC(=O)[C@@H](NC(=O)[C@H](OCc1ccccc1C(=O)Nc1cccc2cnccc12)[C@H](O)[C@@H](O)[C@@H](OCc1ccccc1C(=O)Nc1cccc2cnccc12)C(=O)N[C@H](C(=O)NC)C(C)C)C(C)C [HIV-1 Protease Inhibitor, 6n] | 800 nM
CCCCNC(=O)c1cccc(CO[C@@H](C(=O)N[C@H](C(=O)NC)C(C)C)[C@H](O)[C@@H](O)[C@@H](OCc2cccc(C(=O)NCCCC)c2)C(=O)N[C@H](C(=O)NC)C(C)C)c1 [HIV-1 Protease Inhibitor, 7b] | 3 nM and 6.5 nM
CNC(=O)[C@@H](NC(=O)[C@H](OCc1cccc(C(=O)N2CCCC2)c1)[C@H](O)[C@@H](O)[C@@H](OCc1cccc(C(=O)N2CCCC2)c1)C(=O)N[C@H](C(=O)NC)C(C)C)C(C)C [HIV-1 Protease Inhibitor, 7c] | 200 nM
CNC(=O)[C@@H](NC(=O)[C@H](OCc1cccc(C(=O)N2CCOCC2)c1)[C@H](O)[C@@H](O)[C@@H](OCc1cccc(C(=O)N2CCOCC2)c1)C(=O)N[C@H](C(=O)NC)C(C)C)C(C)C [HIV-1 Protease Inhibitor, 7d] | 300 nM
CNC(=O)[C@@H](NC(=O)[C@H](OCc1cccc(C(=O)NC2CCCCC2)c1)[C@H](O)[C@@H](O)[C@@H](OCc1cccc(C(=O)NC2CCCCC2)c1)C(=O)N[C@H](C(=O)NC)C(C)C)C(C)C [HIV-1 Protease Inhibitor, 7e] | 20 nM
CNC(=O)[C@@H](NC(=O)[C@H](OCc1cccc(C(=O)Nc2ccccc2)c1)[C@H](O)[C@@H](O)[C@@H](OCc1cccc(C(=O)Nc2ccccc2)c1)C(=O)N[C@H](C(=O)NC)C(C)C)C(C)C [HIV-1 Protease Inhibitor, 7f] | 7 nM
CNC(=O)[C@@H](NC(=O)[C@H](OCc1cccc(C(=O)NCc2ccccc2)c1)[C@H](O)[C@@H](O)[C@@H](OCc1cccc(C(=O)NCc2ccccc2)c1)C(=O)N[C@H](C(=O)NC)C(C)C)C(C)C [HIV-1 Protease Inhibitor, 7g] | 2 nM and 2.9 nM

Now from value to compound:

Ki | SMILES
> 5000 nM | CNC(=O)c1ccccc1CO[C@@H](C(=O)N[C@H](C(=O)NC)C(C)C)[C@H](O)[C@@H](O)[C@@H](OCc1ccccc1C(=O)NC)C(=O)N[C@H](C(=O)NC)C(C)C [HIV-1 Protease Inhibitor, 6a]
600 nM | CCCCNC(=O)c1ccccc1CO[C@@H](C(=O)N[C@H](C(=O)NC)C(C)C)[C@H](O)[C@@H](O)[C@@H](OCc1ccccc1C(=O)NCCCC)C(=O)N[C@H](C(=O)NC)C(C)C [HIV-1 Protease Inhibitor, 6c]
800 nM | CNC(=O)[C@@H](NC(=O)[C@H](OCc1ccccc1C(=O)N1CCc2ccccc21)[C@H](O)[C@@H](O)[C@@H](OCc1ccccc1C(=O)N1CCc2ccccc21)C(=O)N[C@H](C(=O)NC)C(C)C)C(C)C [HIV-1 Protease Inhibitor, 6j]
6 nM and 8.5 nM | CNC(=O)[C@@H](NC(=O)[C@H](OCc1ccccc1C(=O)Nc1cccc(Cl)c1)[C@H](O)[C@@H](O)[C@@H](OCc1ccccc1C(=O)Nc1cccc(Cl)c1)C(=O)N[C@H](C(=O)NC)C(C)C)C(C)C [HIV-1 Protease Inhibitor, 6l]
2000 nM and 1330 nM | CNC(=O)[C@@H](NC(=O)[C@H](OCc1ccccc1C(=O)NCc1ccccc1)[C@H](O)[C@@H](O)[C@@H](OCc1ccccc1C(=O)NCc1ccccc1)C(=O)N[C@H](C(=O)NC)C(C)C)C(C)C [HIV-1 Protease Inhibitor, 6m]
20 nM | CNC(=O)c1cccc(CO[C@@H](C(=O)N[C@H](C(=O)NC)C(C)C)[C@H](O)[C@@H](O)[C@@H](OCc2cccc(C(=O)NC)c2)C(=O)N[C@H](C(=O)NC)C(C)C)c1 [HIV-1 Protease Inhibitor, 7a]
